For 6 compounds, ED50 ratio results are on record in ChEMBL document CHEMBL1150473, “Schotten-Baumann acylation of N-debenzoyltaxol; an efficient route to N-acyl taxol analogues and their biological evaluation” (1994).

The subject of one assay is B16. The assay is described as follows: Cytotoxic ratio of inhibition of B16 melanoma cell proliferation after 40 hour incubation relative to taxol. Type of assay: functional, Mus musculus.
Assay [1] concerns the target Tubulin alpha chain (Sus scrofa) (UniProt P02550). The assay can be described thus: Evaluated for ability to initiate the polymerization of tubulin in the microtubule assembly assay expressed as ED50(compound) / ED50(taxol). Type of assay: functional.

Tubulin alpha chain (Sus scrofa), sequence (P02550 whole entry, looked up): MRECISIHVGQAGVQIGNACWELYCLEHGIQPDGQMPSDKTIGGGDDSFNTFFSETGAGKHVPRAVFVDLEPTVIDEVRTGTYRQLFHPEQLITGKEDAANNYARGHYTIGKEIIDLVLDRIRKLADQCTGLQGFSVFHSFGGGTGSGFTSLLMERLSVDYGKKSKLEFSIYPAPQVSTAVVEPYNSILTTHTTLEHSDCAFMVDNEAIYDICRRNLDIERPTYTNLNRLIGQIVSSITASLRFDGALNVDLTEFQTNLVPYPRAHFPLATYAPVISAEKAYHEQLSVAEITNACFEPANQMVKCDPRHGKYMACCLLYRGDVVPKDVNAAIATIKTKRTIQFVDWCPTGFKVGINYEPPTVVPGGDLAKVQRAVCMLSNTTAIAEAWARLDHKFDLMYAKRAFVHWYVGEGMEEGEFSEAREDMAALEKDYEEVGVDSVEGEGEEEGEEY

With `CC(=O)O[C@H]1C(=O)[C@@]2(C)[C@H]([C@H](OC(=O)c3ccccc3)[C@]3(O)C[C@H](OC(=O)[C@H](O)[C@@H](NC(=O)c4c(F)c(F)c(N=[N+]=[N-])c(F)c4F)c4ccccc4)C(C)=C1C3(C)C)[C@]1(OC(C)=O)CO[C@@H]1C[C@@H]2O`, the results for the ED50 ratio (with B16; in assay [1]) were 14.8 and 4.6, respectively.
For `CC(=O)O[C@H]1C(=O)[C@@]2(C)[C@H]([C@H](OC(=O)c3ccccc3)[C@]3(O)C[C@H](OC(=O)[C@H](O)[C@@H](NC(=O)C(C)(C)C)c4ccccc4)C(C)=C1C3(C)C)[C@]1(OC(C)=O)CO[C@@H]1C[C@@H]2O`, in that order: 22.4 and 2.61.
`CC(=O)O[C@H]1C(=O)[C@@]2(C)[C@H]([C@H](OC(=O)c3ccccc3)[C@]3(O)C[C@H](OC(=O)[C@H](O)[C@@H](NC(=O)CC(C)(C)C)c4ccccc4)C(C)=C1C3(C)C)[C@]1(OC(C)=O)CO[C@@H]1C[C@@H]2O`: the ED50 ratio is 3.13 in the assay on B16 and 0.74 in assay [1].
Regarding `CC(=O)O[C@@]12CO[C@@H]1C[C@H](O)[C@@]1(C)C(=O)[C@H](O)C3=C(C)[C@@H](OC(=O)[C@H](O)[C@@H](NC(=O)OC(C)(C)C)c4ccccc4)C[C@@](O)([C@@H](OC(=O)c4ccccc4)[C@H]21)C3(C)C.O.O.O` [DOCETAXEL], the ED50 ratio in the assay with B16 turned out to be 0.23; in assay [1], 0.55.
Regarding `CC(=O)O[C@H]1C(=O)[C@@]2(C)[C@H]([C@H](OC(=O)c3ccccc3)[C@]3(O)C[C@H](OC(=O)[C@H](O)[C@@H](NC(=O)CC(C)C)c4ccccc4)C(C)=C1C3(C)C)[C@]1(OC(C)=O)CO[C@@H]1C[C@@H]2O`, the ED50 ratio in the assay on B16 was 2.65; in assay [1], 1.18.
For `CC(=O)O[C@H]1C(=O)[C@@]2(C)[C@H]([C@H](OC(=O)c3ccccc3)[C@]3(O)C[C@H](OC(=O)[C@H](O)[C@@H](NC(=O)c4ccccc4)c4ccccc4)C(C)=C1C3(C)C)[C@]1(OC(C)=O)CO[C@@H]1C[C@@H]2O` [PACLITAXEL] the same measures were 1 and 1.
